Reference: US6906205B2, “Spiro and dispiro 1,2,4-trioxolane antimalarials” (Medicines for Malaria Venture MMV, priority 2002, dated 2005)
Converted amounts (≈) assume the structure as drawn.

How the values were obtained:
[1] = system: P. falciparum NF54 strain (sensitive to standard antimalarials); experiment: semiautomated microdilution assay, [3H]-hypoxanthine incorporation, NF54 strain; format: cell-based, Plasmodium falciparum; conditions: NF54 strain, 72 h incubation
Description: (§1) Various OZ compounds were tested by the semiautomated microdilution assay against intraerythrocytic forms of Plasmodium falciparum derived from asynchronous stock cultures.
(§2) Fifty percent inhibitory concentration (IC50) were estimated by Logit regression analysis.

[2] = system: ANKA strain of P. berghei; experiment: single dose STI in vivo screen in infected mice; design: species or system Plasmodium berghei; conditions: for Activity (%) po / Activity (%) sc / Activity (%) SSVpo / Activity (%) 3 mg/kg SSV po / Activity (%) 10 mg/kg SSV po: percent reduction in parasitemia day 3 post-infection; for Activity (%) po / Survival (days) po: single 10 mg/kg po in 3% ethanol and 7% Tween 80; for Activity (%) po / Activity (%) sc / Activity (%) SSVpo: mice; for Activity (%) sc / Survival (days) sc: single 10 mg/kg sc in 3% ethanol and 7% Tween 80; for Survival (days) po / Survival (days) sc / Survival (days) SSVpo: untreated control 5.6 ± 0.3; for Activity (%) SSVpo: single po dose in standard suspending vehicle (SSV); for Survival (days) SSVpo: single po dose in SSV; for Activity (%) 3 mg/kg SSV po / Survival (days) 3 mg/kg SSV po: single 3 mg/kg po in SSV; for Activity (%) 10 mg/kg SSV po / Survival (days) 10 mg/kg SSV po: single 10 mg/kg po in SSV
Description: In the single dose STI in vivo screen, Moro SPF or NMRI mice infected with the ANKA strain of P. berghei (groups of 3-5 mice) were treated on day one post-infection with trioxolanes dissolved or suspended in 3% ethanol and 7% Tween 80. […] SSV consists of 0.5% w/v CMC, 0.5% v/v benzyl alcohol, 0.4% v/v Tween 80, and 0.9% w/v sodium chloride in water. Antimalarial activity was measured by percent reduction in parasitemia on day three post-infection and survival times compared to an untreated control group. Survival to day 30 post-infection is considered to be a cure. […] Other factors influencing antimalarial activity include the stability of carbon radicals formed by β-scission subsequent to the initial electron transfer to the peroxide bond and the influence of steric effects remote from the peroxide bond on the interactions between carbon radicals and potential drug targets.

[3] = system: P. falciparum K1 strain (Thailand resistant to chloroquine); experiment: semiautomated microdilution assay, [3H]-hypoxanthine incorporation, K1 strain; format: cell-based, Plasmodium falciparum; conditions: K1 strain, 72 h incubation
Description: as §1, §2

Row | Structure (SMILES) | IC50 (ng/ml) NF54 [1] | IC50 (ng/ml) K1 [3] | Activity (%) 3 mg/kg SSV po [2] [%] | Activity (%) 10 mg/kg SSV po [2] | Survival (days) 10 mg/kg SSV po [2] | also measured
1 | C1CCC2(CC1)OOC1(CCCCC1)O2 [OZ01] | >100/>100 ng/ml | >100/>100 ng/ml |  |  |  | Activity (%) po [2]: 0/NA/0^1%; Activity (%) sc [2]: 0/NA/0^1%; Survival (days) po [2]: 5.3/NA/5.3^1 days; Survival (days) sc [2]: 5.3/NA/5.3^1 days
2 | O=C1CCC2(CC1)OOC1(CCCCC1)O2 [OZ02] | 94 ng/mL (≈ 415 nM) | > 100 ng/mL |  |  |  | Activity (%) po [2]: 0/NA/0^1%; Activity (%) sc [2]: 0/NA/0^1%; Survival (days) po [2]: 5.0/NA/5.0^1 days; Survival (days) sc [2]: 5.0/NA/5.0^1 days
3 | FC1CCCCC12OOC1(CCCCC1)O2 (centres unmarked) [OZ06] | 22 ng/mL (≈ 95.5 nM) | 18 ng/mL (≈ 78.2 nM) |  |  |  | Survival (days) po [2]: 1.0/NA/1.0^1 days; Survival (days) sc [2]: 1.0/NA/1.0^1 days
4 | CCOC(=O)CCC1CCCCC12OOC1(CCCCC1)O2 (centres unmarked) [OZ07] | 49 ng/mL (≈ 157 nM) | 66 ng/mL (≈ 211 nM) |  |  |  | Activity (%) po [2]: 0/NA/0^1%; Activity (%) sc [2]: 0/NA/0^1%; Survival (days) po [2]: 6.0 days; Survival (days) sc [2]: 5.7 days
5 | C1CCC2(CC1)OOC1(CCC3(CC1)OOC1(CCCCC1)O3)O2 (centres unmarked) [OZ09] | 39 ng/mL (≈ 115 nM) | 32 ng/mL (≈ 94 nM) |  |  |  | Activity (%) po [2]: 0%; Activity (%) sc [2]: 81%; Survival (days) po [2]: 5.0 days; Survival (days) sc [2]: 6.3 days
6 | O=C(Cn1ccnc1)N1CCC2(CC1)OOC1(O2)C2CC3CC(C2)CC1C3 (centres unmarked) [OZ103] | 0.17 ng/mL (≈ 0.455 nM) |  |  |  |  | Activity (%) po [2]: 86%; Activity (%) sc [2]: 87%; Activity (%) SSVpo [2]: 63%; Survival (days) po [2]: 7.3 days; Survival (days) sc [2]: 7.3 days; Survival (days) SSVpo [2]: 6.7 days
7 | CN(C)C(=O)N1CCC2(CC1)OOC1(O2)C2CC3CC(C2)CC1C3 (centres unmarked) [OZ133] |  | 0.70 ng/mL (≈ 2.08 nM) |  |  |  | Activity (%) po [2]: 94%; Activity (%) sc [2]: 72%; Activity (%) SSVpo [2]: 97%; Survival (days) po [2]: 7.0 days; Survival (days) sc [2]: 7.0 days; Survival (days) SSVpo [2]: 7.3 days
8 | C1CCC(NC2CCC3(CC2)OOC2(O3)C3CC4CC(C3)CC2C4)CC1 (centres unmarked) [OZ162] | 0.71 ng/mL (≈ 1.96 nM) | 0.50 ng/mL (≈ 1.38 nM) |  |  |  | 
9 | CCOC(=O)c1ccc([C@H]2CC[C@]3(CC2)OOC2(O3)C3CC4CC(C3)CC2C4)cc1 (some centres unmarked) [OZ164] |  |  |  |  |  | Activity (%) po [2]: 11%; Activity (%) sc [2]: 7%; Activity (%) SSVpo [2]: 0%; Survival (days) SSVpo [2]: 5.7 days; IC50 ([3]; Plasmodium falciparum, read-out: IC50 (ng/ml) K1): 59 ng/mL (≈ 143 nM)
10 | CC(C)N(C(=O)N1CCC2(CC1)OOC1(O2)C2CC3CC(C2)CC1C3)C(C)C (centres unmarked) [OZ194] | 6.6 ng/mL (≈ 16.8 nM) |  |  |  |  | Activity (%) po [2]: 87%; Activity (%) sc [2]: 99.95%; Activity (%) SSVpo [2]: 73%; Survival (days) po [2]: 8.3 days; Survival (days) sc [2]: 20.3 days; Survival (days) SSVpo [2]: 8.0 days
11 | CC(C)(C)CC(=O)N[C@H]1CC[C@]2(CC1)OOC1(O2)C2CC3CC(C2)CC1C3 (some centres unmarked) [OZ195] | 3.7 ng/mL (≈ 9.8 nM) | 2.2 ng/mL (≈ 5.83 nM) |  |  |  | 
12 | O=C1CCC(=O)N1C[C@H]1CC[C@]2(CC1)OOC1(O2)C2CC3CC(C2)CC1C3 (some centres unmarked) [OZ197] | 2.0 ng/mL (≈ 5.33 nM) | 1.0 ng/mL (≈ 2.66 nM) |  |  |  | 
13 | NC(=O)N1CCC2(CC1)OOC1(O2)C2CC3CC(C2)CC1C3 (centres unmarked) [OZ199] |  | 0.69 ng/mL (≈ 2.24 nM) |  |  |  | 
14 | NCC[C@H]1CC[C@]2(CC1)OOC1(O2)C2CC3CC(C2)CC1C3 (some centres unmarked) [OZ229] | 0.23 ng/mL (≈ 0.748 nM) | 0.24 ng/mL (≈ 0.781 nM) |  |  |  | 
15 | O=C(NC[C@H]1CC[C@]2(CC1)OO[C@]1(O2)C2CC3CC(C2)CC1C3)c1cccnc1 [OZ273] |  | 0.97 ng/mL (≈ 2.43 nM) | 64 |  |  | 
16 | OC1(Cc2nc3ccccc3s2)CCC2(CC1)OOC1(O2)C2CC3CC(C2)CC1C3 (centres unmarked) [OZ276] | 0.94 ng/mL (≈ 2.2 nM) |  |  | 17/ND % | 7.3/ND days | 
17 | NC(=O)c1ccc(NC[C@H]2CC[C@]3(CC2)OOC2(O3)C3CC4CC(C3)CC2C4)cc1 (some centres unmarked) [OZ286] |  | 0.94 ng/mL (≈ 2.28 nM) | 60 |  | 8.7 days | 
18 | CCOC(=O)NC[C@H]1CC[C@]2(CC1)OO[C@]1(O2)C2CC3CC(C2)CC1C3 [OZ289] | 0.56 ng/mL (≈ 1.53 nM) |  | 92 |  |  | 

Row | Structure (SMILES) | IC50 (ng/ml) NF54 [1] | IC50 (ng/ml) K1 [3] | Activity (%) 3 mg/kg SSV po [2] [%] | Activity (%) 10 mg/kg SSV po [2] | Survival (days) 10 mg/kg SSV po [2] | also measured
19 | CCOC(=O)CNC[C@H]1CC[C@]2(CC1)OO[C@]1(O2)C2CC3CC(C2)CC1C3 [OZ290] |  | 0.42 ng/mL (≈ 1.11 nM) | 95 |  | 9.0 days | 
20 | O=c1ccn(C[C@H]2CC[C@]3(CC2)OO[C@]2(O3)C3CC4CC(C3)CC2C4)cc1 [OZ302] | 2.9 ng/mL (≈ 7.81 nM) |  | 88 | 99.60% |  | 
21 | NCCNC(=O)C[C@H]1CC[C@]2(CC1)OO[C@]1(O2)C2CC3CC(C2)CC1C3 [OZ305] |  | 1.8 ng/mL (≈ 4.94 nM) | 96 | 99.93% | 9.2 days | 
22 | NC(=O)c1cn(C[C@H]2CC[C@]3(CC2)OO[C@]2(O3)C3CC4CC(C3)CC2C4)cn1 [OZ320] |  | 0.68 ng/mL (≈ 1.75 nM) | 92 | 99.76% | 10.4 days | Survival (days) 3 mg/kg SSV po [2]: 11.8 days
23 | O=CNCC(=O)NC[C@H]1CC[C@]2(CC1)OO[C@]1(O2)C2CC3CC(C2)CC1C3 [OZ322] |  | 0.90 ng/mL (≈ 2.38 nM) | 61 | 98% | 10.0 days | 
24 | c1cnc(OC[C@H]2CC[C@]3(CC2)OO[C@]2(O3)C3CC4CC(C3)CC2C4)nc1 [OZ325] |  | 0.62 ng/mL (≈ 1.66 nM) | 30 | 99.43% | 8.8 days | 
25 | c1cnc(NC[C@H]2CC[C@]3(CC2)OO[C@]2(O3)C3CC4CC(C3)CC2C4)nc1 [OZ326] |  | 0.65 ng/mL (≈ 1.75 nM) | 7 | 80% | 7.4 days | 
26 | NC(=O)[C@@H]1CCCN1C[C@H]1CC[C@]2(CC1)OO[C@]1(O2)C2CC3CC(C2)CC1C3 [OZ327] |  | 0.85 ng/mL (≈ 2.18 nM) | 72 | 97% | 9.8 days | 
27 | Nc1nccnc1C(=O)NC[C@H]1CC[C@]2(CC1)OO[C@]1(O2)C2CC3CC(C2)CC1C3 [OZ330] |  | 0.55 ng/mL (≈ 1.33 nM) | 82 | 99.96% |  | 
28 | C[C@H](N)C(=O)NC[C@H]1CC[C@]2(CC1)OO[C@]1(O2)C2CC3CC(C2)CC1C3 [OZ335] | 0.28 ng/mL (≈ 0.768 nM) |  | 97 | 99.95% | 9.2 days | 
29 | CS(=O)(=O)N1CCN(C(=O)C[C@H]2CC[C@]3(CC2)OO[C@]2(O3)C3CC4CC(C3)CC2C4)CC1 [OZ344] |  |  | 0 | 17% | 7.8 days | Survival (days) 3 mg/kg SSV po [2]: 7.4 days
30 | CS(=O)(=O)C1CCN(C(=O)C[C@H]2CC[C@]3(CC2)OO[C@]2(O3)C3CC4CC(C3)CC2C4)CC1 [OZ345] |  |  | 0 | 75% | 9.2 days | Survival (days) 3 mg/kg SSV po [2]: 6.6 days
31 | CS(=O)(=O)CC(=O)NC[C@H]1CC[C@]2(CC1)OO[C@]1(O2)C2CC3CC(C2)CC1C3 [OZ350] |  |  | 69 | 99.17% | 10.4 days | Survival (days) 3 mg/kg SSV po [2]: 9.6 days
32 | c1c[nH]c(C[C@H]2CC[C@]3(CC2)OO[C@]2(O3)C3CC4CC(C3)CC2C4)n1 [OZ355] |  |  | 0 | 71% | 7.0 days | Survival (days) 3 mg/kg SSV po [2]: 6.2 days
33 | O=C(NC[C@H]1CC[C@]2(CC1)OO[C@]1(O2)C2CC3CC(C2)CC1C3)c1cnccn1 [OZ356] |  |  | 87 | 99.64% | 8.6 days | Survival (days) 3 mg/kg SSV po [2]: 8.0 days
34 | N[C@H]1CC[C@]2(CC1)OO[C@]1(O2)C2CC3CC(C2)CC1C3 [OZ362] |  |  | 58 | 98% | 9.8 days | Survival (days) 3 mg/kg SSV po [2]: 7.0 days
35 | O=C([C@H]1CC[C@@]2(CC1)OO[C@@]1(O2)C2CC3CC(C2)CC1C3)N1CCNCC1 [OZ365] |  | 0.79 ng/mL (≈ 2.1 nM) | 92 | 99.57% | 8.0/8.0 days | Survival (days) 3 mg/kg SSV po [2]: 8.0/8.0 days
